# Data from patent publication US10130605B2, “Compositions for use in treating inflammatory bowel diseases and intestinal colitis” (TaiRx Inc., priority 2017, dated 2018).
# “Also recorded” adds a separate entry of the source.
# What was measured:
# Format in all cases: in vivo
# DSS-induced colitis mice [1] = experiment: DSS-induced acute colitis in mouse: histological analysis of HE-stained colon sections; details: for loss of crypt and epithelium in HE-stained colon sections vs Vehicle group: FIG. 5A; for loss/damage of crypt and epithelium in colon sections vs DSS-induced vehicle group: FIGS. 5B-C, same protocol, dose not given
# Method: (§1) Induction of acute colitis. Acute colitis was induced by giving mice with 2.5% DSS (MP Biomedicals) in a drinking water for 5 consecutive days. The DSS administration was taken place in two separate days; where the mice were divided into two groups based on their body weight before the day of the DSS administration.
# (§2) Route of drug administration.
# (§3) Treatment doses. Diacerein was administered at 2 dose levels of 30 and 60 mg/kg, once daily for 5 days.
# (§4) Animals. Eight-week-old female C57BL/6 mice were obtained from Japan SLC, Inc. (Japan). All animals used in the study were housed and cared in accordance with the Japanese Pharmacological Society Guidelines for Animal Use.
# Histological analyses. For HE staining, sections were cut from paraffin blocks of colon tissue prefixed in 10% neutral buffered formalin (Wako Pure Chemical Industries, Japan) and stained with Lillie-Mayer's Hematoxylin (Muto Pure Chemicals Co., Ltd., Japan) and eosin solution (Wako Pure Chemical Industries). Representative photos of the changes observed were captured from each group.
# (§5) The pharmacological effects of aloe-emodin, emodin, and rhein were also respectively tested using the same protocol described above.
# DSS-induced colitis mice [2] = experiment: DSS-induced acute colitis in mouse: disease activity index (DAI) score; details: for decrease in fecal blood score than the DSS-induced vehicle group: not statistically significant; for DAI: Diacerein 30 and 60 mg/kg
# Method: as §1, §2, §3, §4
# Measurement of disease activity index score. A disease activity index (DAI) was calculated daily by summation of the following parameters: • (i) Weight loss (0=no weight loss; 1=1-5% weight loss; 2=6-10% weight loss; 3=11-15% weight loss; and 4=>15% weight loss); • (ii) Occult blood positivity (0=no bleeding; 1=occult blood test (+); 2=occult blood test (++); 3=occult blood test (+++); and 4=gross bleeding from the anus); and • (iii) Stool consistency (0=normal stools; 2=loose stools; 4=diarrhea).
# as §5
# DSS-induced colitis mice [3] = experiment: DSS-induced acute colitis in mouse: macroscopic scoring of colon tissue (colonic damage score); details: for colonic damage score / thickness score / ulceration score / diarrhea score: sacrifice day 5
# Method: as §1, §2, §3, §4
# Macroscopic scoring of colon tissue. Colonic damage was scored using the published criteria of measurement (Wallace et al, Gastroenterology, 1992, 102, 18-27). […]
# DSS-induced colitis mice [4] = experiment: DSS-induced acute colitis in mouse: body weight, colon length, colon weight, general condition; details: for Colon length / Colon weight / Colon-to-BW ratio: colon-to-body weight ratio / BW: body weight on the day of sacrifice: sacrifice day 5; for Colon length / Colon weight / Colon-to-BW ratio: colon-to-body weight ratio: geometric mean ± SEM; for BW: body weight on the day of sacrifice: mean ± SEM, n=8
# Method: as §1, §2, §3, §4
# The average body weight of mice is about 18-22 grams.
# The viability, clinical signs and behavior were monitored daily. Body weight was recorded before the treatment. […] Mice were sacrificed by exsanguinations through direct cardiac puncture under isoflurane anesthesia (Pfizer Inc.). Colon length and weight were measured from the end of the cecum to the anus.
# as §5
# [5] = Mesalazine 100 mg/kg, Day 2 and 3
# [6] = Mesalazine, dose not given, Day 2 and 3
# [7] = both Mesalazine groups (20 and 100 mg/kg), Day 5
# [8] = Mesalazine 20 mg/kg PO QD day 0-4
# [9] = Mesalazine 100 mg/kg PO QD day 0-4
# [10] = summary b147-b150, same protocol, dose not given
# [11] = summary b149-b150, same protocol, dose not given
# [12] = Diacerein 30 mg/kg PO QD day 0-4
# [13] = Diacerein 60 mg/kg PO QD day 0-4
# [14] = summary b148-b149, same protocol, dose not given
compound,measurement,setting,value
"Nc1ccc(O)c(C(=O)O)c1 [Mesalazine, 5-Amino-2-hydroxybenzoic acid]",loss of crypt and epithelium in HE-stained colon sections vs Vehicle group,DSS-induced colitis mice [1]; Mesalazine treatment alone (20 and 100 mg/kg),No significant effect
same,loss/damage of crypt and epithelium in colon sections vs DSS-induced vehicle group,DSS-induced colitis mice [1],less loss of crypt and epithelium
same,"crypt and epithelium damages induced by DSS, microscopic examination of colon sections",DSS-induced colitis mice [1]; Mesalazine treatments (20 and 60 mg/kg),clearly reduced
same,fecal blood score vs Vehicle group (in words),"DSS-induced colitis mice [2]; Mesalazine 20 mg/kg, only at Day 1",significant reduction
same,effect on DAI (in words),"DSS-induced colitis mice [2]; Mesalazine 20 mg/kg, throughout 5-day treatment",no effect
same,fecal blood score vs Vehicle group (in words),"DSS-induced colitis mice [2]; Mesalazine 100 mg/kg, Day 1 to 3",significant reduction
same,Diarrheal stool score vs Vehicle group (in words),DSS-induced colitis mice [2]; [5],significant reduction
same,effect on DAI (in words),DSS-induced colitis mice [2]; [5],significant reduction
same,effect on DAI (in words),"DSS-induced colitis mice [2]; Mesalazine 100 mg/kg, Day 4 or Day 5",no clear reduction in DAI
same,DAI results (in words),DSS-induced colitis mice [2]; Mesalazine (60 mg/kg),effective
same,body weight score (in words),DSS-induced colitis mice [2]; Mesalazine (60 mg/kg),significant effects on reducing the body weight score
same,diarrheal stool score (in words),DSS-induced colitis mice [2]; [6],significantly decreased
same,fecal blood score (in words),DSS-induced colitis mice [2]; [6],significantly decreased
same,body weight score,"DSS-induced colitis mice [2]; both Mesalazine groups (20 and 100 mg/kg), Day 4",1.0-1.3
same,body weight score,DSS-induced colitis mice [2]; [7],1.6-1.9
same,decrease in fecal blood score than the DSS-induced vehicle group,DSS-induced colitis mice [2]; [7],11.4%
same,diarrhea score vs DSS-induced vehicle group (in words),DSS-induced colitis mice [3]; Mesalazine 20 mg/kg,significant decrease in diarrhea score
same,colonic damage score,DSS-induced colitis mice [3]; [8],3.5 ± 0.2
same,thickness score,DSS-induced colitis mice [3]; [8],1.0 ± 0.0
same,ulceration score,DSS-induced colitis mice [3]; [8],2.0 ± 0.0
same,decrease in colonic damage score than the DSS-induced vehicle group,"DSS-induced colitis mice [3]; Mesalazine 20 mg/kg, significant, p<0.05",20.5%
same,colonic damage score,DSS-induced colitis mice [3]; [9],4.0 ± 0.0
same,diarrhea score,DSS-induced colitis mice [3]; [9],1.0 ± 0.0
same,thickness score,DSS-induced colitis mice [3]; [9],1.0 ± 0.0
same,ulceration score,DSS-induced colitis mice [3]; [9],2.0 ± 0.0
same,decrease in colonic damage score than the DSS-induced vehicle group,"DSS-induced colitis mice [3]; Mesalazine 100 mg/kg, not statistically significant",9.1%
same,colon weight vs DSS-induced vehicle group (in words),DSS-induced colitis mice [4]; Mesalazine 20 mg/kg,significant improvement in colon weight
same,Colon length,DSS-induced colitis mice [4]; [8],5.0 ± 0.2 cm
same,Colon weight,DSS-induced colitis mice [4]; [8],202 ± 6 mg
same,Colon length,DSS-induced colitis mice [4]; [9],5.3 ± 0.3 cm
same,Colon weight,DSS-induced colitis mice [4]; [9],202 ± 8 mg
same,colon weight vs DSS-induced vehicle group (in words),DSS-induced colitis mice [4]; Mesalazine (60 mg/kg),lower effect on colon weight than the DSS-induced vehicle group
same,prevention of the body weight loss by DSS-induction (in words),DSS-induced colitis mice [4]; Mesalazine (60 mg/kg),able to prevent the body weight loss
same,improvement in colon length than the DSS-induced vehicle group,"DSS-induced colitis mice [4]; both Mesalazine groups (20 and 100 mg/kg PO QD), not statistically significant",3-9%
"O=C(O)c1cc(O)c2c(c1)C(=O)c1cccc(O)c1C2=O [Rhein, 4,5-Dihydroxyanthraquinone-2-carboxylic acid]",loss/damage of crypt and epithelium in colon sections vs DSS-induced vehicle group,DSS-induced colitis mice [1],less loss of crypt and epithelium; also recorded: clearly reduced
same,DAI results (in words),"DSS-induced colitis mice [2]; same protocol, dose not given",effective
same,body weight score (in words),DSS-induced colitis mice [2]; [10],significant effects on reducing the body weight score
same,diarrheal stool score (in words),DSS-induced colitis mice [2]; [11],significant effects on reducing the diarrheal stool score
same,colon weight vs DSS-induced vehicle group (in words),"DSS-induced colitis mice [4]; same protocol, dose not given",significant improvement in colon weight
same,colon-to-body weight ratio vs DSS-induced vehicle group (in words),"DSS-induced colitis mice [4]; same protocol, dose not given",significant reduction in the colon-to-body weight ratio
same,prevention of the body weight loss by DSS-induction (in words),"DSS-induced colitis mice [4]; same protocol, dose not given",able to prevent the body weight loss
"CC(=O)Oc1cccc2c1C(=O)c1c(OC(C)=O)cc(C(=O)O)cc1C2=O [Diacerein, 1,8-Diacetoxy-3-carboxyanthraquinone]",loss of crypt and epithelium in HE-stained colon sections vs Vehicle group,DSS-induced colitis mice [1]; Diacerein treatment groups (30 and 60 mg/kg),less loss of crypt and epithelium
same,fecal blood score vs Vehicle group (in words),"DSS-induced colitis mice [2]; Diacerein 30 mg/kg, during the treatment",decreased slight fecal blood
same,fecal blood score vs Vehicle group (in words),"DSS-induced colitis mice [2]; Diacerein 60 mg/kg, during the treatment",more significant reduction
same,DAI,DSS-induced colitis mice [2]; Day 4 (vehicle 6.4),~5.1
same,DAI,DSS-induced colitis mice [2]; Day 5 (vehicle 7.1),~6.3
same,body weight score,"DSS-induced colitis mice [2]; Diacerein treatment groups (30 and 60 mg/kg), Day 4, p<0.05 (vehicle 1.0)",0.1-0.3
same,body weight score,"DSS-induced colitis mice [2]; Diacerein treatment groups (30 and 60 mg/kg), Day 5 (vehicle 1.1)",0.6-0.9
same,decrease in fecal blood score than the DSS-induced vehicle group,"DSS-induced colitis mice [2]; both Diacerein groups (30 and 60 mg/kg), Day 5",11.4%
same,colonic damage score,DSS-induced colitis mice [3]; [12],4.1 ± 0.1
same,diarrhea score,DSS-induced colitis mice [3]; [12],1.0 ± 0.0
same,thickness score,DSS-induced colitis mice [3]; [12],1.0 ± 0.0
same,ulceration score,DSS-induced colitis mice [3]; [12],2.1 ± 0.1
same,decrease in colonic damage score than the DSS-induced vehicle group,"DSS-induced colitis mice [3]; Diacerein 30 mg/kg, not statistically significant",6.8%
same,diarrhea score vs DSS-induced vehicle group (in words),DSS-induced colitis mice [3]; Diacerein 60 mg/kg,"lower effect on diarrhea score than the DSS-induced vehicle group, but the observed effect was not statistically significant"
same,colonic damage score,DSS-induced colitis mice [3]; [13],3.8 ± 0.1
same,thickness score,DSS-induced colitis mice [3]; [13],0.9 ± 0.0
same,ulceration score,DSS-induced colitis mice [3]; [13],2.0 ± 0.0
same,decrease in colonic damage score than the DSS-induced vehicle group,"DSS-induced colitis mice [3]; Diacerein 60 mg/kg, significant, p<0.05",13.6%
same,Colon length,DSS-induced colitis mice [4]; [12],5.6 ± 0.2 cm
same,Colon weight,DSS-induced colitis mice [4]; [12],211 ± 10 mg
same,Colon-to-BW ratio: colon-to-body weight ratio,DSS-induced colitis mice [4]; [12],1.2 ± 0.1%
same,BW: body weight on the day of sacrifice,DSS-induced colitis mice [4]; [12],17.8 ± 0.1 g
same,Colon length,DSS-induced colitis mice [4]; [13],5.4 ± 0.3 cm
same,Colon weight,DSS-induced colitis mice [4]; [13],211 ± 0.1 mg
same,Colon-to-BW ratio: colon-to-body weight ratio,DSS-induced colitis mice [4]; [13],1.2 ± 0.1%
same,BW: body weight on the day of sacrifice,DSS-induced colitis mice [4]; [13],17.8 ± 0.3 g
same,body weight changes (in words),"DSS-induced colitis mice [4]; Diacerein groups (30 and 60 mg/kg PO QD), 5-day treatment",maintain the body weights close to the Sham animals
same,increase in body weight on the day of sacrifice than the DSS-induced vehicle group,"DSS-induced colitis mice [4]; both Diacerein groups (30 and 60 mg/kg PO QD), significant",6.6%
"O=C1c2cccc(O)c2C(=O)c2c(O)cc(CO)cc21 [Aloe-emodin, 1,8-Dihydroxy-3-(hydroxymethyl)anthraquinone]",loss/damage of crypt and epithelium in colon sections vs DSS-induced vehicle group,DSS-induced colitis mice [1],less loss of crypt and epithelium; also recorded: clearly reduced
same,DAI results (in words),"DSS-induced colitis mice [2]; same protocol, dose not given",effective
same,body weight score (in words),DSS-induced colitis mice [2]; [10],significant effects on reducing the body weight score
same,fecal blood score (in words),DSS-induced colitis mice [2]; [14],significant effects on reducing the fecal blood score
same,colon-to-body weight ratio vs DSS-induced vehicle group (in words),"DSS-induced colitis mice [4]; same protocol, dose not given",significant improvement in the colon-to-body weight ratio
same,prevention of the body weight loss by DSS-induction (in words),"DSS-induced colitis mice [4]; same protocol, dose not given",able to prevent the body weight loss
"Cc1cc(O)c2c(c1)C(=O)c1cc(O)cc(O)c1C2=O [Emodin, 1,3,8-Trihydroxy-6-methyl-9,10-anthracenedione]",DAI results (in words),"DSS-induced colitis mice [2]; same protocol, dose not given",effective
same,body weight score (in words),DSS-induced colitis mice [2]; [10],significant effects on reducing
same,fecal blood score (in words),DSS-induced colitis mice [2]; [14],significant effects on reducing
same,diarrheal stool score (in words),DSS-induced colitis mice [2]; [11],significant effects on reducing
same,colon weight vs DSS-induced vehicle group (in words),"DSS-induced colitis mice [4]; same protocol, dose not given",significant improvement in colon weight
same,colon-to-body weight ratio vs DSS-induced vehicle group (in words),"DSS-induced colitis mice [4]; same protocol, dose not given",significant reduction in the colon-to-body weight ratio
same,prevention of the body weight loss by DSS-induction (in words),"DSS-induced colitis mice [4]; same protocol, dose not given",able to prevent the body weight loss
